The structures appear in SMILES notation.

The test is described as follows: growth inhibition of Trypanosoma brucei – absorbance, round 2, provider-run, counter-screen for T. brucei MetRS inhibitor project, late-stage follow-up (AID 1053203). To be noted: T. brucei Lister 427 bloodstream growth, AlamarBlue, 48 h. (In general: Counterscreens check selectivity or assay interference.)

Usually IC50 stands for the midpoint of a concentration-inhibition curve. Molecule `CCN(CC)C(=O)C(=O)c1cn(CC(=O)Nc2cc(Cl)cc(C(F)(F)F)c2)c2ccccc12` showed a half-maximal inhibitory concentration (IC50) (run 1) of 2640 nM.

With `CCN(CC)C(=O)C(=O)c1cn(CC(=O)Nc2cc(C)cc(C(F)(F)F)c2)c2ccccc12`, the IC50 runs as follows: (run 1) 1720 nM; (run 2) 2090 nM.

The molecule `CCN(CC)C(=O)C(=O)c1cn(CC(=O)Nc2cc(Oc3ccccc3)cc(C(F)(F)F)c2)c2ccccc12` returned an IC50 (run 1) of 1150 nM and an IC50 (run 2) of 1070 nM.

Regarding `CCN(CC)C(=O)C(=O)c1cn(CC(=O)Nc2cc(Br)cc(C(F)(F)F)c2)c2ccccc12`, for the setting “run 1”, the IC50 is 3360 nM.

Take `CCN(CC)C(=O)C(=O)c1cn(CC(=O)Nc2cccc(C(F)(F)F)c2)c2cc(OC)ccc12`: the IC50 (run 1) was more than 10000 nM.

Where the note is “run 1”, `CCN(CC)C(=O)C(=O)c1cn(CC(=O)Nc2cc(C(F)(F)F)cc(C(F)(F)F)c2)c2ccccc12` returned an IC50 of 2600 nM.

The record behind these values is PubChem BioAssay AID1053203 (The Scripps Research Institute Molecular Screening Center, 2014).
